Results from US20230414584A1, “ADMINISTRATION OF ANTIBIOTIC COMPOUNDS FOR THE TREATMENT OF STREPTOCOCCAL INFECTIONS FOR THE TREATMENT OF PSORIASIS” (CENTRE FOR DIGESTIVE DISEASES, priority 2017, published 2023).

How the values were obtained:
[1] = system: extensive plaque psoriasis; assay: Case report: treatment of psoriasis with Clofazimine, Rifampicin, Tinidazole, Enbrel (Example 4); type: in vivo, human
Procedure: It was at this time that antibiotics were added to the etanercept (Enbrel™).

psoriasis of the scalp = assay: Case report: treatment of psoriasis of the scalp in an adult with OCD using Metronidazole (Example 1); type: in vivo, human
Excerpt: A patient with Obsessive-Compulsive Personality Disorder (OCD) commenced treatment in April 2016 with two non-absorbable antibiotics (vancomycin and rifaximin), together with the absorbable Metronidazole. The aim was to suppress their gut bacteria to reduce the OCD.

CN(Cc1cnc2nc(N)nc(N)c2n1)c1ccc(C(=O)N[C@@H](CCC(=O)O)C(=O)O)cc1 [Methotrexate]
adverse effects ([1]; person, steroid-dependent extensive psoriasis): unacceptable adverse effects

Cc1ncc([N+](=O)[O-])n1CCO [Metronidazole]
psoriasis of the scalp (psoriasis of the scalp; patient, Metronidazole given with non-absorbable vancomycin and rifaximin from April 2016, by November of 2016): marked suppression of the psoriasis of the scalp | psoriasis of the scalp (psoriasis of the scalp; same patient, by February of 2017): very little psoriasis left on the scalp

etanercept
response of psoriasis on continued treatment ([1]; in spite of many months of injections, before antibiotics were added): the response stalled | response of psoriasis ([1]; person, before antibiotics were added): reduction of the surface area of their body covered by psoriasis plaque
